Data from US6713515B2, “Retinoic acid receptor antagonists as promoters of angiogenesis” (Bristol Myers Squibb Company, priority 2000, dated 2004).
“Also recorded” adds a separate entry of the source.

How the values were obtained:
RAR-γ [1] = target: T1, RAR-γ (Homo sapiens, UniProt P13631); experiment: Transactivation competition assay (antagonist activity) in transfected HeLa cells; format: cell-based; settings: for Competition RAR-γ % MAX: inhibition of transactivation by 10^−7 M t-RA, 16 hours
Protocol: (§1) Antagonist Activity Antagonist activity of the test retinoids was evaluated by a transactivation competition assay. Transfected HeLa cells were treated for 16 hours with 10^−7 M t-RA, with or without test retinoids, at concentrations of 10^−8 to 10^−5 M. The cells were then harvested and assayed for CAT activity. The antagonist activity was determined as an IC50 for the inhibition of transactivation produced by t-RA.
T1 sequence (P13631 with tags, fused parts or gaps limits assumed, species assumed): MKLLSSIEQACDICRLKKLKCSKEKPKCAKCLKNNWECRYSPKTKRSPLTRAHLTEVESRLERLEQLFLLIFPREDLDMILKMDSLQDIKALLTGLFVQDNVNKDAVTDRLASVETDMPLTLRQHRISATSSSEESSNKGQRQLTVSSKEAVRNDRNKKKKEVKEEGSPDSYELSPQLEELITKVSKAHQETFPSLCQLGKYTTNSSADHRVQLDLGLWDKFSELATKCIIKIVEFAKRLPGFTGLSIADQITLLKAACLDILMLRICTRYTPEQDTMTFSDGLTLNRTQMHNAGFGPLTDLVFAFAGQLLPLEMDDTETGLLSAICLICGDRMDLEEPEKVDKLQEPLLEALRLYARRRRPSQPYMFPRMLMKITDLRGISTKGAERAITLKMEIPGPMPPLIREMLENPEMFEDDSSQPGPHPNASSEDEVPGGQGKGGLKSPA

RAR-α [2] = target: T2, RAR-α (Homo sapiens, UniProt P10276); experiment: as above; format: cell-based; settings: for Competition RAR-α % MAX: inhibition of transactivation by 10^−7 M t-RA, 16 hours
Protocol: as §1
T2 sequence (P10276 with tags, fused parts or gaps limits assumed, species assumed): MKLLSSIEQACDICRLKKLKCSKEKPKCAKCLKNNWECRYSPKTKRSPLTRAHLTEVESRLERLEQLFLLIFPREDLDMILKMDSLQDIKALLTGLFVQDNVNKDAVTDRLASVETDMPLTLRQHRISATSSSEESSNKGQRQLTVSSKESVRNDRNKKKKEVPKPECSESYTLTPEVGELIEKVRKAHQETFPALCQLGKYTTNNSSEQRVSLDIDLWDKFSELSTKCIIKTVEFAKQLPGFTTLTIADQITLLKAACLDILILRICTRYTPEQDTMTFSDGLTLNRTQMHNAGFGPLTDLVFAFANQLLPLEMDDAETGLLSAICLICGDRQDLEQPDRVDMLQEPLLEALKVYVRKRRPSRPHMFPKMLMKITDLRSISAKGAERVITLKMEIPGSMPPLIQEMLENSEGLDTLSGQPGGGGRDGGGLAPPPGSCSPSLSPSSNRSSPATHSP

RAR-α [3] = target: T2, RAR-α; experiment: Receptor transactivation, GAL4-RAR chimeric receptor/CAT reporter in HeLa cells; format: cell-based; settings: 24 hours
RAR-β [4] = target: T3, RAR-β (Homo sapiens, UniProt P10826); experiment: Transactivation competition assay (antagonist activity) in transfected HeLa cells; format: cell-based; settings: for Competition RAR-β % MAX: inhibition of transactivation by 10^−7 M t-RA, 16 hours
T3 sequence (P10826 with tags, fused parts or gaps limits assumed, species assumed): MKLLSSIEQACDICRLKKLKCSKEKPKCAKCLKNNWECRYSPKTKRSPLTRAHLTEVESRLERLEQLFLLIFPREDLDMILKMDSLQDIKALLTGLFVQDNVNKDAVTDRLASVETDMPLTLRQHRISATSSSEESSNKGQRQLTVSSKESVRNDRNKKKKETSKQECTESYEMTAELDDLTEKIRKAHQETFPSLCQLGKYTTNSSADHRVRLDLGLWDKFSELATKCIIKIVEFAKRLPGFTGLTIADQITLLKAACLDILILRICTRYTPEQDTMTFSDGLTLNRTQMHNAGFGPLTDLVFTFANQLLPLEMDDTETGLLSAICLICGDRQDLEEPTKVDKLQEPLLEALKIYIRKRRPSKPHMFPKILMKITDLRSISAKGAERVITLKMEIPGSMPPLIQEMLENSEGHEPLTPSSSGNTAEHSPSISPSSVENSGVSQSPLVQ

RAR-γ [5] = target: T4, RAR-γ (Homo sapiens, UniProt P13631); experiment: Receptor binding competition assay with radioactive t-RA; settings: for Kd: apparent Kd from competition with radioactive t-RA, recombinant RAR, read-out: Direct Binding RAR-γ Kd
T4 sequence (P13631 1-454): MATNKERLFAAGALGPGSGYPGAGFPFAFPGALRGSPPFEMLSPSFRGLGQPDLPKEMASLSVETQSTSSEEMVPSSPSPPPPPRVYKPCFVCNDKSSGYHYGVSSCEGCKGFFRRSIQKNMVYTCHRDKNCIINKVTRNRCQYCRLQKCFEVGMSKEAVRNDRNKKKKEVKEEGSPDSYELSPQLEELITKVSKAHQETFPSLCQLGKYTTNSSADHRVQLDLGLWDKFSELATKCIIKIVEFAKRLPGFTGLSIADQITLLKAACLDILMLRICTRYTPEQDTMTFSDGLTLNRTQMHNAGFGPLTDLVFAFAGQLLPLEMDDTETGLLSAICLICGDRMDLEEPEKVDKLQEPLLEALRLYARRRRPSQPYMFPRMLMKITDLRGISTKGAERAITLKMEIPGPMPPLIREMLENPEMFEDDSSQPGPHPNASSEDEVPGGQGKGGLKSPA

RAR-β [6] = target: T3, RAR-β; experiment: Receptor transactivation, GAL4-RAR chimeric receptor/CAT reporter in HeLa cells; format: cell-based
RAR-γ [7] = target: T1, RAR-γ; experiment: as above; format: cell-based; settings: 24 hours
RAR-α [8] = target: T5, RAR-α (Homo sapiens, UniProt P10276); experiment: Receptor binding competition assay with radioactive t-RA; settings: apparent Kd from competition with radioactive t-RA, recombinant RAR; read-out: Direct Binding RAR-α Kd
T5 sequence (P10276 1-462): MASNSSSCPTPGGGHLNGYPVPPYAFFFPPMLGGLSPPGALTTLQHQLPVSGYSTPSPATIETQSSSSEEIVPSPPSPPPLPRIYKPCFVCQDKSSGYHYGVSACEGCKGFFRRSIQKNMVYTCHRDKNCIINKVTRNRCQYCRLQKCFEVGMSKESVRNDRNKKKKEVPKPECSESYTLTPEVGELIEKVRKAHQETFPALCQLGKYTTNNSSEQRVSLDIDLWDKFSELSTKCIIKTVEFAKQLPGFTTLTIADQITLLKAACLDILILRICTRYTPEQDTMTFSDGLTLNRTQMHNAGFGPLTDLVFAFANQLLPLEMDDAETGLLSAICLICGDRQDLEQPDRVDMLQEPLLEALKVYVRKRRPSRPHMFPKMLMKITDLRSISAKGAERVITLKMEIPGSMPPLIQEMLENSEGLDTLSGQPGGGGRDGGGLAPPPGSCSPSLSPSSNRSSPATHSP

RAR-β [9] = target: T6, RAR-β (Homo sapiens, UniProt P10826); experiment: as above; settings: apparent Kd from competition with radioactive t-RA, recombinant RAR; read-out: Direct Binding RAR-β Kd
T6 sequence (P10826 1-455): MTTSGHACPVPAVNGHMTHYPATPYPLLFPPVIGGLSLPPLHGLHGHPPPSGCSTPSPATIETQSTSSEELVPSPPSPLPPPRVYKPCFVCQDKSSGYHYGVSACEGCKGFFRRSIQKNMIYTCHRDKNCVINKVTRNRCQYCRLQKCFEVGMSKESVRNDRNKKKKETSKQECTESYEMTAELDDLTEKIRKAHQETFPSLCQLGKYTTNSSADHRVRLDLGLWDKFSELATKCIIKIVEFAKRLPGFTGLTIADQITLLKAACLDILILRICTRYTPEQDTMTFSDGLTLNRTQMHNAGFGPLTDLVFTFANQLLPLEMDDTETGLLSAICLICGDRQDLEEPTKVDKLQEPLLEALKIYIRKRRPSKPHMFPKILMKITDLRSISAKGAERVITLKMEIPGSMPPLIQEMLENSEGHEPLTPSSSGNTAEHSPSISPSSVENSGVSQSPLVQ

C57BL/KsJ mice = experiment: Skin flap model of angiogenesis; format: in vivo
Protocol: The skin flap model is a suitable in vivo approach to monitor the angiogenic response because it requires restoration of the disrupted blood vessel network that is impaired at the distal edge of the flap. A single application of vehicle (ethanol) or different concentrations of Compound 5 were performed. The results were monitored one and two weeks after the initiation of the experiment.
Sections were deparaffinized in xylene and rehydrated in a series of ethanol/water solutions. A 4% mouse non-immune serum in PBS was used for blocking. Monoclonal anti-PECAM-1 antibody (CD31, Sigma) was used at 1:100 dilution. FITC-conjugated anti-mouse IgG antibody (Sigma) was further applied to the sections at 1:200 dilution. Visualization was performed on an Olympus fluorescent microscope.
Female C57BL/KsJ mice were purchased from Jackson Labs (Bar Harbor, Me., USA) at the age of 6 weeks. Animals were acclimated for at least 2 weeks and housed 4 per cage with free access to water and food under 12 h light/dark cycle at a temperature of 23±2° C. and a humidity of 55±10%.
The mice were anesthetized by an IP injection of xyalazine/ketamine, the hair at the back clipped and the surface sterilized with 70% ethanol. A 3-way, full-thickness incision was introduced with the use of a scalpel, the skin flap separated from underlying tissues, the compound or vehicle applied, and the skin repositioned and sutured. Mice were housed individually after the procedure. The animals were sacrificed by CO2 inhalation and tissues were fixed in formalin, embedded in paraffin and evaluated histologically or immunocytochemically.

SMILES | IC50 (RAR-γ [1]) | Competition RAR-γ % MAX (RAR-γ [1]) | IC50 (RAR-α [2]) | Competition RAR-α % MAX (RAR-α [2]) | Transactivation RAR-α % MAX (RAR-α [3]) | IC50 (RAR-β [4]) | Competition RAR-β % MAX (RAR-β [4]) | Kd (RAR-γ [5]) | Transactivation RAR-β % MAX (RAR-β [6]; HeLa cells, 24 hours) | Transactivation RAR-γ % MAX (RAR-γ [7]) | Kd (RAR-α [8]) | Kd (RAR-β [9]) | RARβ transactivation (agonistic) activity, in words (RAR-β [6]; reporter transactivation assays) | EC50 (RAR-β [6]; HeLa cells, 24 hours, 50% of the effect of 10^−6 M t-RA) | Binding to RARγ relative to Compound 4 (RAR-γ [5]; comparison of Kd values) | Amount of endothelial cells (anti-PECAM-1 staining) (C57BL/KsJ mice; 0.01% and 0.1%, dose-dependent, FIG. 4) | Number of blood vessels under the flap (histology, H&E) (C57BL/KsJ mice; lower dose group, FIG. 3 center panel) | Number of blood vessels under the flap (histology, H&E) (C57BL/KsJ mice; single application, 0.01% and 0.1%, one and two weeks, vs ethanol vehicle, FIG. 3)
COc1ccc(C2=CCC(C)(C)c3ccc(/C=C/c4ccc(C(=O)O)cc4)cc32)cc1 [Compound 7, (E)-4-[2-[5,6-dihydro-5,5-dimethyl-8-(4-methoxyphenyl)-2-naphthalenyl]ethenyl]benzoic acid] | 1000 nM | 100% | 400 nM | 100% | 0% | 1000 nM | 100% | 2.6 nM | 0% | 0% | 1.3 nM | 6.1 nM |  |  |  |  |  | 
CC1(C)CC=C(c2ccccc2)c2cc(/C=C/c3ccc(C(=O)O)cc3)ccc21 [Compound 4, (E)-4-[2-(5,6-dihydro-5,5-dimethyl-8-phenyl-2-naphthalenyl)ethenyl]benzoic acid] | 200 nM | 100% | 200 nM | 100% | 0% |  | 80% | 0.5 nM | 20% | 0% | 1 nM |  | weak RARβ transactivation activity; also recorded: weak RARβ agonistic activity |  |  |  |  | 
CC1(C)CC=C(c2ccccc2)c2cc(/C=C/c3ccc(C(=O)O)cc3Cl)ccc21 [Compound 8, (E)-3-chloro-4-[2-(5,6-dihydro-5,5-dimethyl-8-phenyl-2-naphthalenyl)ethenyl]benzoic acid] | 2000 nM | 80% | 3000 nM | 80% | 0% |  | 0% | 245 nM | 110% | 0% | 200 nM | 2.8 nM |  | 10 nM |  |  |  | 
CC1(C)CC=C(c2ccc3ccccc3c2)c2cc(/C=C/c3ccc(C(=O)O)cc3)ccc21 [Compound 6, (E)-4-[2-[5,6-dihydro-5,5-dimethyl-8-(2-naphthalenyl)-2-naphthalenyl]ethenyl]-benzoic acid] | 900 nM | 100% | 300 nM | 100% | 0% | 500 nM | 100% | 24 nM | 0% | 0% | 2 nM | 57 nM |  |  |  |  |  | 
CC1=C(/C=C/C(C)=C/C=C/C(C)=C/C(=O)O)C(C)(C)CCC1 [All Trans RA, all trans retinoic acid, reference compound] |  |  |  |  | 100% |  |  |  | 100% | 100% |  |  |  |  |  |  |  | 
CC1(C)CC=C(C#Cc2ccccc2)c2cc(/C=C/c3ccc(C(=O)O)cc3)ccc21 [Compound 5, (E)-4-[[(5,6-dihydro-5,5-dimethyl-8-phenylethynyl)-2-naphthalenyl]ethenl]benzoic acid] | 300 nM | 100% | 200 nM | 100% | 0% | 300 nM | 100% | 98 nM | 0% | 0% | 4.2 nM | 2.9 nM |  |  | approximately two orders weaker | increased amounts of endothelial cells; also recorded: higher amounts of endothelial cells | increase in the number of blood vessels | increased angiogenesis; also recorded: significantly higher numbers of blood vessels
